The numbers were not newly measured in patent publication US20070098643A1, “Oligomers of gadolinium chelates, their applicationascontrast products in magnetic resonance imaging and their synthesis intermediates” (priority 2002, published 2007), which cites them from elsewhere.

In data set [1] the test system is benign and malignant breast tumors. As to conditions: in this model; Daldrup-Link et al. 2000.
The conditions of data set [2]: in vivo.

Regarding Gadomer-17, the “differentiation of benign from malignant tumors in MRI” value in data set [1] is given as “does not allow such a differentiation”. In addition, in data set [2], the C5/C0 ratio is on record as 21%, the distribution volume was 130 mL/kg, the plasma half-life is given as 37 min and the total plasma clearance is 8.1 mL/min/kg.
